According to patent publication US20240109865A1, “INDAZOLE COMPOUNDS AS KINASE INHIBITORS” (TYRA BIOSCIENCES, INC., priority 2020, published 2024):

Tests used:
Assay in all cases: Kinase assay, binding constants (Kd), kinase-tagged T7 phage, qPCR
[1] = molecular target: FGFR1 (Homo sapiens (Human), UniProt P11362)
How it was run: (§1)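 Competition binding: T7 phage-tagged kinase + biotin-ligand beads + compound (11 pts, 3-fold, 0.9% DMSO). Elution 30 min RT with free ligand; qPCR quantitation. Kd via Hill fit, slope −1.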

[2] = molecular target: FGFR4 (Homo sapiens (Human), UniProt P22455)
How it was run: as §1

[3] = molecular target: FGFR3 (Homo sapiens (Human), UniProt P22607)
How it was run: as §1

[4] = molecular target: FGFR3 (V555M) (Homo sapiens (Human), UniProt P22607, V555M); details: V555M mutant
How it was run: as §1

[5] = molecular target: FGFR2 (Homo sapiens (Human), UniProt P21802)
How it was run: as §1

Sequence of FGFR3 (P22607 23-806): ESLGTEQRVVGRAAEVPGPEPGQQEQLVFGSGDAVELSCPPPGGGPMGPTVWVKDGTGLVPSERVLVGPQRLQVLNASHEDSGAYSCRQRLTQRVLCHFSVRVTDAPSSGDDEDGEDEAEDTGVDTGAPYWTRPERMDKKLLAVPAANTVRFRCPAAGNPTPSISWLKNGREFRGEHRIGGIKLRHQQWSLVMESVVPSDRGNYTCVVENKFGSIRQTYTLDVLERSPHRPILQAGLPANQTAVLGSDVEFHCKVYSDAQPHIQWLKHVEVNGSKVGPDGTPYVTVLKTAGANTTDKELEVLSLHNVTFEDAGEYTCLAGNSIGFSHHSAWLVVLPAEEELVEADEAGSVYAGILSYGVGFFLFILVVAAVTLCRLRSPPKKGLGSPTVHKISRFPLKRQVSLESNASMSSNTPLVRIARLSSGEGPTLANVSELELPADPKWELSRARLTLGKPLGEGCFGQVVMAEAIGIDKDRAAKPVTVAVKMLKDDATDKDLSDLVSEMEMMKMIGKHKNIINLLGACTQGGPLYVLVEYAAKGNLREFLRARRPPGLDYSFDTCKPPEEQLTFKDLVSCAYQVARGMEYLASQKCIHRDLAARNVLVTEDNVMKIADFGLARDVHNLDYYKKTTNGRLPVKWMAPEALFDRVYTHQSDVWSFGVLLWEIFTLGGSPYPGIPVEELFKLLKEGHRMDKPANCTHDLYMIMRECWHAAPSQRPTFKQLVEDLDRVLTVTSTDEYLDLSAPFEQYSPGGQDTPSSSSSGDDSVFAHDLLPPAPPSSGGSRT
Sequence of FGFR3 (V555M) (P22607 23-806 V555M): as the sequence (P22607 23-806) above, with V533M counted along it
Sequence of FGFR4 (P22455 22-802): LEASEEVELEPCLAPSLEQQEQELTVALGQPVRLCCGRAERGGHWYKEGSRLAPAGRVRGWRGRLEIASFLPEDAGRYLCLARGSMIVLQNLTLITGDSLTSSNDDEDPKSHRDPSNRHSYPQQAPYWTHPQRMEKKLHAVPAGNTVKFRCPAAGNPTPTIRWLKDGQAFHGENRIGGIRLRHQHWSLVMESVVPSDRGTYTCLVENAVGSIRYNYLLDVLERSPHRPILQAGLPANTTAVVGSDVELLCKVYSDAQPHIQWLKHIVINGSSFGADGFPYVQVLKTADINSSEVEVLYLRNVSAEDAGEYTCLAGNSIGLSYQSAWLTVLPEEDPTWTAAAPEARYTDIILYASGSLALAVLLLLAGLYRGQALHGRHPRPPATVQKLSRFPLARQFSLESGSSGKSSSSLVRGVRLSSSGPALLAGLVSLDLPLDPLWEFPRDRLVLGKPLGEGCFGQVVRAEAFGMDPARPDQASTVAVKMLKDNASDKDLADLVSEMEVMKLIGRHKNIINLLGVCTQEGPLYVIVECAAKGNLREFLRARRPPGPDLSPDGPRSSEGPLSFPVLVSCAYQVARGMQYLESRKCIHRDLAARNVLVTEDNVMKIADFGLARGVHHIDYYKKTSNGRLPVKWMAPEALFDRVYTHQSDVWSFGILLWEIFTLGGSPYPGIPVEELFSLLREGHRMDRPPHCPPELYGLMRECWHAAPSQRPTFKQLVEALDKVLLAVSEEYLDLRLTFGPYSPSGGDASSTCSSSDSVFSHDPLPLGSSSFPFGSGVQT
Sequence of FGFR2 (P21802 22-821): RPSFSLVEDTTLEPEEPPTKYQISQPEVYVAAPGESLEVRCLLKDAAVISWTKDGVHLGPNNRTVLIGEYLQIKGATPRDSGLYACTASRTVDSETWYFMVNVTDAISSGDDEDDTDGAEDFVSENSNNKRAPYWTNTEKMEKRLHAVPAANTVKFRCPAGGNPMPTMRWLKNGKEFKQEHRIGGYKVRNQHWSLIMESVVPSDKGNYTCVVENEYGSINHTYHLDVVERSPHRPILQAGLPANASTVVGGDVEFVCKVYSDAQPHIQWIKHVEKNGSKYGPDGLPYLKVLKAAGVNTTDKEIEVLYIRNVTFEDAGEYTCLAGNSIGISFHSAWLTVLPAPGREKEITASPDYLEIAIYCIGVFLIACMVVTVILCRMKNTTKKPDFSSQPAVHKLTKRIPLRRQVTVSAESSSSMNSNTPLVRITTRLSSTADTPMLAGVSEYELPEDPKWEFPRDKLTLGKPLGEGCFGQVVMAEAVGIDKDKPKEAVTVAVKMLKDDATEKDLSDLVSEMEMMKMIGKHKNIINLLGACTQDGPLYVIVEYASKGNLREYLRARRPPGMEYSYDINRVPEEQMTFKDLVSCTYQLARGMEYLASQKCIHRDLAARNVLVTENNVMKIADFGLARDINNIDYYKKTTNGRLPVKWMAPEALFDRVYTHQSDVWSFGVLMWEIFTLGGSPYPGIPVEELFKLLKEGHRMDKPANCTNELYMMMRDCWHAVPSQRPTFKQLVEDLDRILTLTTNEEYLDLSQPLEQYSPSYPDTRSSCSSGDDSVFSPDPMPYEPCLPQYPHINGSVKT
Sequence of FGFR1 (P11362 22-822): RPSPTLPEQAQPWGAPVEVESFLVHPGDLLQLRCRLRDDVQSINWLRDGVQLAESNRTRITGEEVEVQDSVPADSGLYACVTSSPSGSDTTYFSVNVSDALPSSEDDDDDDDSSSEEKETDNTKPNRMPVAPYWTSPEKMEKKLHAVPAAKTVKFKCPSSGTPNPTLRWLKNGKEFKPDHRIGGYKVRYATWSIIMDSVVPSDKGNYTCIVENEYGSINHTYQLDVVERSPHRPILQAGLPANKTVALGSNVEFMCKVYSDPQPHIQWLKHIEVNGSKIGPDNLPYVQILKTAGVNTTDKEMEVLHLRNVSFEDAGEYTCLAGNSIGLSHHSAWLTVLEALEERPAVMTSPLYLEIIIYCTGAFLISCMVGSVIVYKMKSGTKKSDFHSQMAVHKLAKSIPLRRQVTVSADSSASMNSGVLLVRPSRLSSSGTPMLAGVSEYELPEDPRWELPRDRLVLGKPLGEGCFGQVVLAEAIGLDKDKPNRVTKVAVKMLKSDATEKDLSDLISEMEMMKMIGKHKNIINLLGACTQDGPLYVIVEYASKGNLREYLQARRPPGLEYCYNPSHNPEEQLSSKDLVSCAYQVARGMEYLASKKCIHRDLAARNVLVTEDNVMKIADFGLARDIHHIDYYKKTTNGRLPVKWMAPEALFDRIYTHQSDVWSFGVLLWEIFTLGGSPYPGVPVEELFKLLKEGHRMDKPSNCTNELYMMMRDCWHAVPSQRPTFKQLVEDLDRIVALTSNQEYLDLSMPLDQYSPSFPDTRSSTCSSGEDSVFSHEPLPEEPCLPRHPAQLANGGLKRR

CCOC(=O)N1CCCC2(C1)CN(c1ccc(-c3n[nH]c4ccc(O[C@H](C)c5c(C)cnnc5C)cc34)cn1)C2 [Example 182, ethyl 2-[5-[5-[(1R)-1-(3,5-dimethylpyridazin-4-yl)ethoxy]-1H-indazol-3-yl]-2-pyridyl]-2,8-diazaspiro[3.5]nonane-8-carboxylate]
Kd [1]: 20 to 100 nM
Kd [2]: 1 to 20 nM
Kd [3]: 1 to 20 nM
Kd [4]: 1 to 20 nM
Kd [5]: 1 to 20 nM

COc1cc2[nH]nc(-c3ccc(N4CC5(C4)CN(S(C)(=O)=O)C5)nc3)c2cc1O[C@H](C)c1c(Cl)cnnc1Cl [Example 261, (R)-5-(1-(3,5-dichloropyridazin-4-yl)ethoxy)-6-methoxy-3-(6-(6-(methylsulfonyl)-2,6-diazaspiro[3.3]heptan-2-yl)pyridin-3-yl)-1H-indazole]
Kd [1]: 1 to 20 nM
Kd [2]: 1 to 20 nM
Kd [3]: 1 to 20 nM
Kd [4]: 1 to 20 nM
Kd [5]: 1 to 20 nM

COc1c(O[C@H](C)c2c(C)cnnc2C)ccc2[nH]nc(-c3ccc(N4CC5(C4)CN(S(C)(=O)=O)C5)nc3)c12 [Example 200, 5-[(1R)-1-(3,5-dimethylpyridazin-4-yl)ethoxy]-4-methoxy-3-[6-(2-methylsulfonyl-2,6-diazaspiro[3.3]heptan-6-yl)-3-pyridyl]-1H-indazole]
Kd [1]: > 300 nM
Kd [2]: > 300 nM
Kd [3]: > 300 nM
Kd [4]: 100 to 300 nM
Kd [5]: > 300 nM

Cc1cnnc(C)c1[C@@H](C)Oc1ccc2[nH]nc(-c3ccc(N4CCN5CCC[C@@H]5C4)nc3)c2c1 [Example 175, 3-[6-[(8aR)-3,4,6,7,8,8a-hexahydro-1H-pyrrolo[1,2-a]pyrazin-2-yl]-3-pyridyl]-5-[(1R)-1-(3,5-dimethylpyridazin-4-yl)ethoxy]-1H-indazole]
Kd [1]: 1 to 20 nM
Kd [2]: 1 to 20 nM
Kd [3]: 1 to 20 nM
Kd [4]: 1 to 20 nM
Kd [5]: 1 to 20 nM

COc1cc(-c2n[nH]c3ccc(O[C@H](C)c4c(Cl)cncc4Cl)cc23)cnc1N1CCOCC1 [Example 105, 4-[5-[5-[(1R)-1-(3,5-dichloro-4-pyridyl)ethoxy]-1H-indazol-3-yl]-3-methoxy-2-pyridyl]morpholine]
Kd [1]: > 300 nM
Kd [2]: 20 to 100 nM
Kd [3]: 100 to 300 nM
Kd [4]: 100 to 300 nM
Kd [5]: > 300 nM

COc1cc2[nH]nc(-c3cnc(N4CC5(COC5)C4)c(C#N)c3)c2cc1O[C@H](C)c1c(C)cnnc1C [Example 218, (R)-5-(5-(1-(3,5-dimethylpyridazin-4-yl)ethoxy)-6-methoxy-1H-indazol-3-yl)-2-(2-oxa-6-azaspiro[3.3]heptan-6-yl)nicotinonitrile]
Kd [1]: 20 to 100 nM
Kd [2]: 1 to 20 nM
Kd [3]: 20 to 100 nM
Kd [4]: 1 to 20 nM
Kd [5]: 20 to 100 nM

COC1(C)CN(c2ccc(-c3n[nH]c4ccc(O[C@H](C)c5c(Cl)cnc(C)c5Cl)cc34)cn2)C1 [Example 210, 5-[(1R)-1-(3,5-dichloro-2-methyl-4-pyridyl)ethoxy]-3-[6-(3-methoxy-3-methyl-azetidin-1-yl)-3-pyridyl]-1H-indazole]
Kd [1]: 20 to 100 nM
Kd [2]: 1 to 20 nM
Kd [3]: 1 to 20 nM
Kd [4]: 1 to 20 nM
Kd [5]: 1 to 20 nM

COc1cc2[nH]nc(-c3cnc(N4CC[C@H]4C)c(S(C)(=O)=O)c3)c2cc1O[C@H](C)c1c(Cl)cncc1Cl [Example 372, 5-((R)-1-(3,5-dichloropyridin-4-yl)ethoxy)-6-methoxy-3-(6-((R)-2-methylazetidin-1-yl)-5-(methylsulfonyl)pyridin-3-yl)-1H-indazole]
Kd [1]: 100 to 300 nM
Kd [2]: 1 to 20 nM
Kd [3]: 20 to 100 nM
Kd [4]: 1 to 20 nM
Kd [5]: 100 to 300 nM

C[C@@H](Oc1ccc2[nH]nc(-c3cnc(N4CC[C@@H](C(C)(C)O)C4)c(C#N)c3)c2c1)c1c(Cl)cncc1Cl [Example 294, 5-[5-[(1R)-1-(3,5-dichloro-4-pyridyl)ethoxy]-1H-indazol-3-yl]-2-[(3R)-3-(1-hydroxy-1-methyl-ethyl)pyrrolidin-1-yl]pyridine-3-carbonitrile]
Kd [1]: > 300 nM
Kd [2]: 20 to 100 nM
Kd [3]: 100 to 300 nM
Kd [4]: 20 to 100 nM
Kd [5]: > 300 nM

Cc1ncc(Cl)c([C@@H](C)Oc2ccc3[nH]nc(-c4ccc(N5CC6(CCOC6)C5)nc4)c3c2)c1Cl [Example 216, 2-[5-[5-[(1R)-1-(3,5-dichloro-2-methyl-4-pyridyl)ethoxy]-1H-indazol-3-yl]-2-pyridyl]-6-oxa-2-azaspiro[3.4]octane]
Kd [1]: 20 to 100 nM
Kd [2]: 1 to 20 nM
Kd [3]: 1 to 20 nM
Kd [4]: 1 to 20 nM
Kd [5]: 1 to 20 nM

Cc1cnnc(C)c1[C@@H](C)Oc1ccc2[nH]nc(-c3cnc(N4CC[C@@H](C(C)(C)O)C4)c(C#N)c3)c2c1 [Example 307, 5-(5-((R)-1-(3,5-dimethylpyridazin-4-yl)ethoxy)-1H-indazol-3-yl)-2-((R)-3-(2-hydroxypropan-2-yl)pyrrolidin-1-yl)nicotinonitrile]
Kd [1]: 100 to 300 nM
Kd [2]: 1 to 20 nM
Kd [3]: 20 to 100 nM
Kd [4]: 1 to 20 nM
Kd [5]: 20 to 100 nM

C[C@H](Oc1ccc2[nH]nc(-c3cnc(N4CC(O)C4)c(C#N)c3)c2c1)c1c(Cl)cnc(F)c1Cl [Example 291, (S)-5-(5-(1-(3,5-dichloro-2-fluoropyridin-4-yl)ethoxy)-1H-indazol-3-yl)-2-(3-hydroxyazetidin-1-yl)nicotinonitrile]
Kd [1]: > 300 nM
Kd [2]: > 300 nM
Kd [3]: > 300 nM
Kd [4]: > 300 nM
Kd [5]: > 300 nM

CCN1CC[C@H](n2cc(-c3n[nH]c4ccc(O[C@H](C)c5c(Cl)cncc5Cl)cc34)cn2)C1 [Example 89, 5-[(1R)-1-(3,5-dichloro-4-pyridyl)ethoxy]-3-[1-[(3S)-1-ethylpyrrolidin-3-yl]pyrazol-4-yl]-1H-indazole]
Kd [1]: 1 to 20 nM
Kd [2]: 20 to 100 nM
Kd [3]: 1 to 20 nM
Kd [4]: 1 to 20 nM
Kd [5]: 1 to 20 nM

C[C@@H](Oc1ccc2[nH]nc(-c3cnn(C4CCN(C5CCC5)CC4)c3)c2c1)c1cc(F)cc(F)c1 [Example 167, 3-[1-(1-cyclobutyl-4-piperidyl)pyrazol-4-yl]-5-[(1R)-1-(3,5-difluorophenyl)ethoxy]-1H-indazole]
Kd [1]: 20 to 100 nM
Kd [2]: > 300 nM
Kd [3]: 20 to 100 nM
Kd [4]: 1 to 20 nM
Kd [5]: 20 to 100 nM

Cc1cnnc(C)c1[C@@H](C)Oc1ccc2[nH]nc(-c3ccc(N4CC5(CCCN(C(=O)OC(C)C)C5)C4)nc3)c2c1 [Example 189, isopropyl 2-[5-[5-[(1R)-1-(3,5-dimethylpyridazin-4-yl)ethoxy]-1H-indazol-3-yl]-2-pyridyl]-2,8-diazaspiro[3.5]nonane-8-carboxylate]
Kd [1]: 20 to 100 nM
Kd [2]: 1 to 20 nM
Kd [3]: 1 to 20 nM
Kd [4]: 1 to 20 nM
Kd [5]: 1 to 20 nM

C[C@@H](Oc1ccc2[nH]nc(-c3cnc(N4CCC4)c(C#N)c3)c2c1)c1c(Cl)cncc1Cl [Example 309, 2-(azetidin-1-yl)-5-[5-[(1R)-1-(3,5-dichloro-4-pyridyl)ethoxy]-1H-indazol-3-yl]pyridine-3-carbonitrile]
Kd [1]: > 300 nM
Kd [2]: 1 to 20 nM
Kd [3]: 100 to 300 nM
Kd [4]: 20 to 100 nM
Kd [5]: > 300 nM

C[C@@H](Oc1ccc2[nH]nc(-c3ccc(N4CC5(CNC5)C4)nc3)c2c1)c1c(Cl)cncc1Cl [Example 45, 3-[6-(2,6-diazaspiro[3.3]heptan-2-yl)-3-pyridyl]-5-[(1R)-1-(3,5-dichloro-4-pyridyl)ethoxy]-1H-indazole]
Kd [1]: 1 to 20 nM
Kd [2]: 1 to 20 nM
Kd [3]: 1 to 20 nM
Kd [4]: 1 to 20 nM
Kd [5]: 1 to 20 nM

Cc1cnnc(C)c1[C@@H](C)Oc1ccc2[nH]nc(-c3cnc(N4CCC[C@H]4CO)c(C#N)c3)c2c1 [Example 336, 5-(5-((R)-1-(3,5-dimethylpyridazin-4-yl)ethoxy)-1H-indazol-3-yl)-2-((S)-2-(hydroxymethyl)pyrrolidin-1-yl)nicotinonitrile]
Kd [1]: 20 to 100 nM
Kd [2]: 1 to 20 nM
Kd [3]: 20 to 100 nM
Kd [4]: 1 to 20 nM
Kd [5]: 20 to 100 nM

COc1cc2[nH]nc(-c3ccc(N4CCC4)nc3)c2cc1O[C@H](C)c1c(C)cnnc1C [Example 310, (R)-3-(6-(azetidin-1-yl)pyridin-3-yl)-5-(1-(3,5-dimethylpyridazin-4-yl)ethoxy)-6-methoxy-1H-indazole]
Kd [1]: 1 to 20 nM
Kd [2]: 1 to 20 nM
Kd [3]: 1 to 20 nM
Kd [4]: 1 to 20 nM
Kd [5]: 1 to 20 nM

Cc1ncc(Cl)c([C@@H](C)Oc2ccc3[nH]nc(-c4ccc(N5CCN6C(=O)CCC6C5)nc4)c3c2)c1Cl (stereo partly drawn) [Example 225, 2-[5-[5-[(1R)-1-(3,5-dichloro-2-methyl-4-pyridyl)ethoxy]-1H-indazol-3-yl]-2-pyridyl]-1,3,4,7,8,8a-hexahydropyrrolo[1,2-a]pyrazin-6-one]
Kd [1]: 20 to 100 nM
Kd [2]: 1 to 20 nM
Kd [3]: 1 to 20 nM
Kd [4]: 1 to 20 nM
Kd [5]: 1 to 20 nM

C[C@@H](Oc1ccc2[nH]nc(-c3ccc(N4CC5(COC5)C4)nc3)c2c1)c1c(Cl)cnc(F)c1Cl [Example 203, 6-[5-[5-[(1R)-1-(3,5-dichloro-2-fluoro-4-pyridyl)ethoxy]-1H-indazol-3-yl]-2-pyridyl]-2-oxa-6-azaspiro[3.3]heptane]
Kd [1]: 20 to 100 nM
Kd [2]: 1 to 20 nM
Kd [3]: 1 to 20 nM
Kd [4]: 1 to 20 nM
Kd [5]: 1 to 20 nM

COc1cc(-c2n[nH]c3ccc(O[C@H](C)c4c(C)cnnc4C)cc23)cnc1N1CCN2C(=O)NCC2C1 (stereo partly drawn) [Example 328, 7-(5-(5-((R)-1-(3,5-dimethylpyridazin-4-yl)ethoxy)-1H-indazol-3-yl)-3-methoxypyridin-2-yl)hexahydroimidazo[1,5-a]pyrazin-3(2H)-one]
Kd [1]: 100 to 300 nM
Kd [2]: 1 to 20 nM
Kd [3]: 100 to 300 nM
Kd [4]: 20 to 100 nM
Kd [5]: 100 to 300 nM
